The values below come from a melting point compilation (Tetko et al.).

For `NC(=O)C1(c2cccc(Cl)c2)CC1`, the melting point – broadly, the temperature of the solid-liquid transition – is 99 to 101 °C.

With `O=C(O)C1CCN(c2ccccc2[N+](=O)[O-])CC1`, the melting point lay in the range of 158 to 160 °C.

`O=C1Nc2ccccc2S(=O)(=O)N1` yielded a melting point of 301 to 303 °C.

In turn, `CCC(=O)c1ccccc1OC(F)F` yielded a melting point of 30 to 32 °C.

Turning to `O=C(O)c1ccc(Oc2ccc(Oc3ccccc3)cc2)nc1`, the melting point is 152 to 154 °C.

Take `Cc1ccc(C(C)C(O)C(=O)O)cc1` (configuration not stated): the melting point is 111 to 113 °C.

`CC(C)(C)Cc1noc2nc(C3CC3)cc(C(=O)O)c12` had a melting point of 164 to 166 °C.

`CN1C(=O)C(C#N)=C(N)C12CCCC2` had a melting point of 290 to 292 °C.

`CN(C)C(=O)c1cc(Oc2ccc(N)cc2)ccn1`: the melting point lay within 113 to 115 °C.

On to `CN(CC(=O)NC1CC1)C(=O)CCl`, for which the melting point fell in the range of 113 to 115 °C.

`Cc1ccc(Oc2ccc(N)cc2Cl)c(Br)c1` registered a melting point of 110 to 112 °C.

On to `ON=Cc1csnn1`, for which the melting point lay in the range of 136 to 138 °C.

Compound `CC(C)(C)OC(=O)Nc1cscn1` registered a melting point of 153 to 155 °C.

`Cc1[nH]ncc1S(=O)(=O)Cl` yielded a melting point of 95 to 97 °C.

`CN(C)S(=O)(=O)c1cc(C(=O)O)ccc1F` displayed a melting point of 199 to 201 °C.

`O=C(NCCCCl)C1CCCC1` displayed a melting point of 66 to 68 °C.

In turn, `COC(=O)c1cc(CBr)cc(C(=O)OC)c1` had a melting point of 139 to 141 °C.

Turning to `CC(Cl)C(=O)Nc1ccc(Cl)cc1` (configuration not stated), the melting point was in the range of 100 to 102 °C.

In turn, `CCN(CC)c1nc2ccccc2[nH]c1=O` registered a melting point of 151 to 153 °C.

`CCOc1cc(C(=O)O)ccc1OCc1ccncc1` displayed a melting point of 238 to 240 °C.

`O=C(O)COc1ccc(C(=O)c2ccccc2Cl)cc1` yielded a melting point of 141 to 143 °C.

As to `CCN(C(=O)N1CCC(C(=O)O)CC1)C(C)C`, the melting point was in the range of 107 to 109 °C.

Regarding `O=C(O)Cc1ccc(Cl)cc1Br`, the melting point fell in the range of 126 to 128 °C.

For the compound `CCNS(=O)(=O)c1ccc(Br)c(C(=O)O)c1`, the melting point was 198 to 200 °C.

In turn, `CN(C)CC(C)(C)CNC(N)=S` displayed a melting point of 121 to 123 °C.

Compound `O=C(O)c1ccccc1C(=O)N1CCCCC1` gave a melting point of 109 to 111 °C.

Compound `N#Cc1ccc(Nc2cccc(C(=O)O)c2)cc1` returned a melting point of 247 to 249 °C.

For the compound `CCN(CC)c1ccc(-c2nnc(S)n2-c2ccccc2C)cc1`, the melting point fell in the range of 232 to 234 °C.

For the compound `NC(=O)c1[nH]cnc1N`, the melting point was 249 to 251 °C.

Consider `O=C(O)Cc1csc(Cc2ccccc2)n1`, for which the melting point was in the range of 128 to 130 °C.

As to `O=[N+]([O-])c1cc(S(=O)(=O)Nc2nc3ccccc3nc2Cl)ccc1Cl`, the melting point was in the range of 180 to 182 °C.

The compound `CC(C1CC2CCC1C2)n1c(N)cc(=O)[nH]c1=O` (configuration not stated) returned a melting point of 248 to 250 °C.

The compound `COc1ccccc1NS(=O)(=O)c1cccc(C(=O)O)c1` registered a melting point of 156 to 158 °C.

For `NC(=O)NC(CC(=O)O)c1cccs1` (configuration not stated), the melting point is 190 to 192 °C.

Regarding `CC(O)c1nc2ccc(Cl)cc2n1C` (configuration not stated), the melting point lay within 149 to 151 °C.

Take `CC(CO)CC(C)(C)N` (configuration not stated): the melting point lay in the range of 64 to 66 °C.

Compound `O=C(CBr)CS(=O)(=O)c1ccccc1` gave a melting point of 96 to 98 °C.

`Nc1cc(-c2ccc(F)cc2)no1` returned a melting point of 100 to 102 °C.

With `CCOC(=O)c1cc(Cl)ccc1[N+](=O)[O-]`, the melting point lay within 37 to 39 °C.

With `CC(C)c1ccccc1NC(N)=S`, the melting point is 137 to 139 °C.

Take `CCc1ccc(O)c(C(=O)O)c1`: the melting point lay within 118 to 120 °C.

Turning to `Nc1cccc(S(=O)(=O)N2CCCC2)c1`, the melting point fell in the range of 156 to 158 °C.

Consider `O=C(O)C1CSCN1C(=O)c1ccc(Cl)cc1` (configuration not stated), for which the melting point lay within 60 to 62 °C.

Compound `CCCn1c(N)nc2ccccc21` registered a melting point of 114 to 116 °C.

Turning to `O=C(O)Cc1csc(NC(=O)NC2CC2)n1`, the melting point was in the range of 188 to 190 °C.

With `Nc1nonc1-c1ccc(Br)cc1`, the melting point is 141 to 143 °C.

Regarding `CCCc1nc(N)sc1CC`, the melting point is 53 to 55 °C.

Turning to `COc1ccc(Br)cc1C(N)=S`, the melting point was in the range of 143 to 145 °C.

Consider `O=C(CBr)c1cc2cc(Cl)ccc2o1`, for which the melting point was 168 to 170 °C.

`O=C(CCl)Cc1c(F)cccc1Cl` registered a melting point of 37 to 39 °C.

Compound `Cc1ccc2nc(C)c(C(=O)O)cc2c1` displayed a melting point of 174 to 176 °C.

In turn, `CCN(Cc1ccccc1N)C(C)=O` registered a melting point of 79 to 81 °C.

Consider `COc1ccc(CC(=O)NCc2ccc(C(=O)O)cc2)cc1`, for which the melting point was in the range of 229 to 231 °C.

Take `Cn1c(N)nnc1S`: the melting point was in the range of 278 to 280 °C.

Turning to `Nc1ccc2c(c1)C(=O)N(CC1CC1)C2=O`, the melting point was in the range of 163 to 165 °C.

Regarding `Nc1ccc(C(=O)NCCO)cc1`, the melting point lay within 115 to 117 °C.

In the case of `ClCc1nc(-c2cccnc2)no1`, the melting point is 87 to 89 °C.

Regarding `CCc1ccccc1Nc1nnc(S)s1`, the melting point was 159 to 161 °C.

On to `COc1ccc(C(C)=O)cc1CC#N`, for which the melting point fell in the range of 111 to 113 °C.

Regarding `Cc1ccc(-c2ccc(=O)[nH]n2)s1`, the melting point lay in the range of 231 to 233 °C.

On to `O=C(O)CCc1n[nH]c(=O)[nH]c1=O`, for which the melting point fell in the range of 203 to 205 °C.

Compound `N#CCc1ccc(OCC(=O)O)cc1` displayed a melting point of 148 to 150 °C.

The compound `O=C(O)c1ccc(C(=O)Nc2ccccc2)cc1` displayed a melting point of 309 to 311 °C.

`OCc1cnc(N2CCOCC2)s1` yielded a melting point of 101 to 103 °C.

Regarding `CSC(=NS(C)(=O)=O)SC`, the melting point lay in the range of 88 to 90 °C.

With `Cn1cccc(N)c1=O`, the melting point is 112 to 114 °C.

Regarding `NS(=O)(=O)c1cccc2c1CCCN2`, the melting point lay in the range of 147 to 149 °C.

For `O=C1CSC(=Cc2nc3ccccc3s2)N1`, the melting point was 186 to 188 °C.

The compound `O=C(O)Cn1ccc(C(F)(F)F)n1` had a melting point of 58 to 64 °C.

In turn, `CN(C)C(=O)C1CNc2ccccc2O1` (configuration not stated) yielded a melting point of 90 to 92 °C.

Regarding `CC(C)(C)c1nc2cc(N)ccc2o1`, the melting point was in the range of 111 to 113 °C.

Turning to `COc1ccc(COc2cccc(F)c2)cc1N`, the melting point was in the range of 57 to 59 °C.

On to `Clc1cc(Cl)c2c(n1)NCC2`, for which the melting point is 149 to 151 °C.

With `NC(Cc1nc2ccccc2[nH]1)=NO`, the melting point was 138 to 140 °C.

With `CC(C(=O)O)c1cccc(F)c1` (configuration not stated), the melting point was 59 to 61 °C.

In turn, `C=CCn1c(S)nc2cc3ccccc3cc2c1=O` gave a melting point of 285 to 287 °C.

For `CCCOc1nc2ccccc2cc1/C=C/C(=O)O`, the melting point is 159 to 161 °C.

Take `Nc1ccccc1Sc1nncs1`: the melting point was in the range of 109 to 111 °C.

In turn, `Cc1cc(Cl)cc2nc(S)oc12` had a melting point of 253 to 255 °C.

`CNc1nc(S)nc2ccccc12` gave a melting point of 220 to 222 °C.

For `COC(=O)c1cc(Cl)c(NC(=O)OCC(F)(F)F)cc1OC`, the melting point lay in the range of 100 to 102 °C.

The compound `Brc1cccc2cnoc12` yielded a melting point of 79 to 81 °C.

The compound `Nc1ccc(F)c(-n2nnnc2C2CC2)c1` showed a melting point of 93 to 95 °C.

In turn, `O=C(O)CCC(=O)c1ccc2ccccc2c1` displayed a melting point of 172 to 174 °C.

`CCc1cc(=O)[nH]c(-c2cccnc2)n1` showed a melting point of 151 to 153 °C.

For `N#CCCn1cc(C(=O)O)c(-c2cccc(Br)c2)n1`, the melting point was 154 to 156 °C.

As to `ClCc1coc(-c2ccccc2Cl)n1`, the melting point is 54 to 56 °C.

Consider `O=C(O)c1ccc(-c2ccco2)[nH]c1=O`, for which the melting point lay within 299 to 301 °C.

With `CC(=O)NCc1ccc(C(=O)N2CCCC2C(=O)O)cc1` (configuration not stated), the melting point is 196 to 198 °C.

`Nc1n[nH]c2nc3ccccc3cc12` showed a melting point of 314 to 316 °C.

Regarding `NC(=O)Cc1ccc(OCC(=O)O)cc1`, the melting point lay within 171 to 173 °C.

Turning to `O=C(Nc1cnccn1)C1CCNCC1`, the melting point lay in the range of 131 to 133 °C.

Take `Cc1cc(C(N)C(=O)O)ccc1Cl` (configuration not stated): the melting point lay within 218 to 220 °C.

As to `Nc1ccc(CN2C(=O)Cc3ccc(Cl)cc32)cc1`, the melting point fell in the range of 129 to 131 °C.

`CN(c1ccccc1)c1ccccc1C(=O)O` had a melting point of 105 to 107 °C.

In turn, `COc1ccc(C=NO)cc1OCc1ccccc1` gave a melting point of 75 to 77 °C.

The compound `O=C(O)CCCCc1ccc(I)cc1` registered a melting point of 109 to 111 °C.

With `O=C(O)c1ccc(O)c(-c2ccccc2)c1`, the melting point was in the range of 142 to 144 °C.

With `O=C(Cc1nc(CCl)cs1)Nc1ccccc1`, the melting point is 115 to 117 °C.

Compound `O=C(O)C1CCCN1C(=O)C1CCCCC1` (configuration not stated) showed a melting point of 135 to 137 °C.

The compound `Nc1ncc(Cc2cccc(Cl)c2)s1` showed a melting point of 99 to 101 °C.

The compound `O=C1NS(=O)(=O)c2ccc(Br)cc21` yielded a melting point of 245 to 247 °C.

`NS(=O)(=O)c1ccc(Cl)c(S(=O)(=O)Cl)c1`: the melting point was 185 to 187 °C.

The compound `CN(CC(=O)O)C1CC1` returned a melting point of 101 to 103 °C.

`Nc1ccc(Oc2ncccn2)cc1` returned a melting point of 132 to 134 °C.

Take `NNC(=O)c1cc(F)ccc1Br`: the melting point lay in the range of 149 to 151 °C.

As for `O=S(=O)(Cl)/C=C/c1ccccc1`, the melting point fell in the range of 80 to 88 °C.

In turn, `CSCC[C@H](N)C(=O)NO` showed a melting point of 148 to 150 °C.

`Cc1ccccc1-c1nn(-c2ccccc2)cc1C(=O)O`: the melting point lay within 177 to 179 °C.

The compound `O=C(O)Cc1coc(-c2ccc(Cl)cc2)n1` had a melting point of 191 to 193 °C.

For `Nc1nc(-c2ccccc2)cn1N`, the melting point lay within 258 to 260 °C.

`N#Cc1cccc(NC(=O)OCC(F)(F)F)c1` displayed a melting point of 133 to 135 °C.

`COc1cc(Br)[nH]n1`: the melting point was in the range of 70 to 72 °C.

`Cc1cc(S(N)(=O)=O)cc(C(=O)O)c1C` had a melting point of 261 to 263 °C.

In turn, `CCc1nnnn1-c1ccccc1N` came in with a melting point of 107 to 109 °C.

As for `c1nnc(C2CC2)n1C1CC1`, the melting point fell in the range of 74 to 76 °C.

`CC(C)c1cnc(-c2ccc([N+](=O)[O-])cc2)o1` had a melting point of 103 to 105 °C.

With `COc1ccc(C(=O)O)cc1S(=O)(=O)N1CCCc2ccccc21`, the melting point fell in the range of 211 to 213 °C.

`NNC(=O)Nc1cccc(Cl)c1` had a melting point of 107 to 109 °C.

The compound `CC(C)(C)OC(=O)NCCc1nnc2n1CCCC2` yielded a melting point of 158 to 160 °C.

As for `O=C(NO)C12CC3CC(CC(C3)C1)C2`, the melting point lay within 110 to 112 °C.

In turn, `Nc1cc2c(=O)[nH]cnc2cc1F` displayed a melting point of 319 to 321 °C.
